This note sets out measurements from US20230219986A1, “NOVEL AMINOPYRIMIDINE EGFR INHIBITOR” (QILU PHARMACEUTICAL CO., LTD., priority 2020, published 2023).

Structures are written as SMILES. Like-named read-outs stand apart in the source and are kept apart here.

For assay [1], the target named is T1, L858R/T790M/C797S triple mutant EGFR (Homo sapiens, UniProt P00533, C797S/L858R/T790M).
T1 construct: purchased Signalchem
The experiment in a line: Enzymology experiment in vitro (HTRF/FRET kinase activity), L858R/T790M/C797S triple mutant EGFR. The class given is biochemical. The conditions noted are these: HTRF KinEASE-TK. The procedure, abridged: (§1)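 Kinase reaction run 40 min at room temperature with peptide and ATP after a 10 min compound–enzyme preincubation. Phosphorylation read as HTRF signal after 1 h with Eu³⁺ antibody, XL665-streptavidin and EDTA (Cisbio KinEASE-TK).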
A general note: In TR-FRET formats the signal depends on donor and acceptor labels being close together.

Another assay addresses T2, wild-type EGFR (Homo sapiens, UniProt P00533).
T2 construct: purchased Signalchem
The assay can be described thus: Enzymology experiment in vitro (HTRF/FRET kinase activity), wild-type EGFR. In kind it is biochemical. As to conditions: HTRF KinEASE-TK. The gist of the method: as §1

For assay [2], the target named is Ba/F3 De119/T790M/C797S EGFR triple mutant cell line (Homo sapiens, UniProt P00533, T790M/C797S, cells depend on it, form not given). The assay can be described thus: Cell proliferation inhibition experiment (CellTiter-Glo), Ba/F3 De119/T790M/C797S. As to conditions: Ba/F3 Del19/T790M/C797S EGFR triple mutant cells, 72 hours, Cell Titer-Glo; read-out: Ba/F3 (Del19/T790M/C797S) IC50. In kind it is cell-based.
Sequence of Ba/F3 De119/T790M/C797S EGFR triple mutant cell line (P00533 with tags, fused parts or gaps DEL746-750/T790M/C797S, form open): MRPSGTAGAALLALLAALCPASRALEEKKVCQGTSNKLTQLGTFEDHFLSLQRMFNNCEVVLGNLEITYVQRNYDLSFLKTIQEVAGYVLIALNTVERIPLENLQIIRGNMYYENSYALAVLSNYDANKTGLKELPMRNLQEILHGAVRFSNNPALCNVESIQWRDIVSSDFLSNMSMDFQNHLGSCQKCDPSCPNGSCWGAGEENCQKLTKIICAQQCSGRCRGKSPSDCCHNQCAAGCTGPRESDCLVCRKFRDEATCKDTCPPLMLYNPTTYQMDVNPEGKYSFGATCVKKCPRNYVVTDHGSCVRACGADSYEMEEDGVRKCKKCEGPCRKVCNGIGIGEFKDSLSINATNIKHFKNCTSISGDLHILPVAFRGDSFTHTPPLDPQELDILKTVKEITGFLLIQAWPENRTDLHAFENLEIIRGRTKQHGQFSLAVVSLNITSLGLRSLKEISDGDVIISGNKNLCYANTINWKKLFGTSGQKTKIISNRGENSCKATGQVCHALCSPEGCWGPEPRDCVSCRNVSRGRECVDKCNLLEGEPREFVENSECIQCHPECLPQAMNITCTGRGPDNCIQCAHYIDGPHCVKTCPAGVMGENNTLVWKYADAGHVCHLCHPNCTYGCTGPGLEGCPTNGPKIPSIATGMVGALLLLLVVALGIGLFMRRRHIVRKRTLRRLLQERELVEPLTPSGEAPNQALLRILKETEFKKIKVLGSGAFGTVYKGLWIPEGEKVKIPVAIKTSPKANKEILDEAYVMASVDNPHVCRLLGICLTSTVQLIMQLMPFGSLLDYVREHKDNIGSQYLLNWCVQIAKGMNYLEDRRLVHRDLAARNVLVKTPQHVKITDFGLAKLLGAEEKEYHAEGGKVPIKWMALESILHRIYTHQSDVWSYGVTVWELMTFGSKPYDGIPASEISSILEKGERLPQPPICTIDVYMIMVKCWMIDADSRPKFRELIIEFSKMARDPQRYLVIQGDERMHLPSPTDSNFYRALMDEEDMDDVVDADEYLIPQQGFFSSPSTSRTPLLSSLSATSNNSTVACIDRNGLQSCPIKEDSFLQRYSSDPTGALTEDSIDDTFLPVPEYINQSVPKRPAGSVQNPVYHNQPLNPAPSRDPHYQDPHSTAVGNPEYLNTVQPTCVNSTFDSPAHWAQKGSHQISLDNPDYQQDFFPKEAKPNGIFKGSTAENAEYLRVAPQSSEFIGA

Assay [3] concerns EGFR wild-type cell line A431. The assay can be described thus: Cell proliferation inhibition experiment (CellTiter-Glo), A431. The conditions noted are these: A431 cells, Cell Titer-Glo, read-out: A431 EGFR WT IC50. In kind it is cell-based. The gist of the method: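 Luminescent CellTiter-Glo readout, 30 min at room temperature, after 72 h compound exposure at 37° C., 5% CO2 with 0.1% DMSO final. EGFR wild-type A431 cells were seeded at 800 per well and grown 24 h before dosing. IC50 derived from the dose-response.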
On the technique in general: In ATP-based viability assays light output follows the ATP content of the culture.

Assay [4] deals with Ba/F3 L858R/T790M/C797S EGFR triple mutant cell line (Homo sapiens, UniProt P00533, T790M/C797S/L858R, cells depend on it). The assay can be described thus: Cell proliferation inhibition experiment (CellTiter-Glo), Ba/F3 L858R/T790M/C797S. In kind it is cell-based. The conditions noted are these: 72 hours, Cell Titer-Glo, read-out: Ba/F3 (L858R/T790M/C797S) IC50.
Sequence of Ba/F3 L858R/T790M/C797S EGFR triple mutant cell line (P00533 whole entry T790M/C797S/L858R): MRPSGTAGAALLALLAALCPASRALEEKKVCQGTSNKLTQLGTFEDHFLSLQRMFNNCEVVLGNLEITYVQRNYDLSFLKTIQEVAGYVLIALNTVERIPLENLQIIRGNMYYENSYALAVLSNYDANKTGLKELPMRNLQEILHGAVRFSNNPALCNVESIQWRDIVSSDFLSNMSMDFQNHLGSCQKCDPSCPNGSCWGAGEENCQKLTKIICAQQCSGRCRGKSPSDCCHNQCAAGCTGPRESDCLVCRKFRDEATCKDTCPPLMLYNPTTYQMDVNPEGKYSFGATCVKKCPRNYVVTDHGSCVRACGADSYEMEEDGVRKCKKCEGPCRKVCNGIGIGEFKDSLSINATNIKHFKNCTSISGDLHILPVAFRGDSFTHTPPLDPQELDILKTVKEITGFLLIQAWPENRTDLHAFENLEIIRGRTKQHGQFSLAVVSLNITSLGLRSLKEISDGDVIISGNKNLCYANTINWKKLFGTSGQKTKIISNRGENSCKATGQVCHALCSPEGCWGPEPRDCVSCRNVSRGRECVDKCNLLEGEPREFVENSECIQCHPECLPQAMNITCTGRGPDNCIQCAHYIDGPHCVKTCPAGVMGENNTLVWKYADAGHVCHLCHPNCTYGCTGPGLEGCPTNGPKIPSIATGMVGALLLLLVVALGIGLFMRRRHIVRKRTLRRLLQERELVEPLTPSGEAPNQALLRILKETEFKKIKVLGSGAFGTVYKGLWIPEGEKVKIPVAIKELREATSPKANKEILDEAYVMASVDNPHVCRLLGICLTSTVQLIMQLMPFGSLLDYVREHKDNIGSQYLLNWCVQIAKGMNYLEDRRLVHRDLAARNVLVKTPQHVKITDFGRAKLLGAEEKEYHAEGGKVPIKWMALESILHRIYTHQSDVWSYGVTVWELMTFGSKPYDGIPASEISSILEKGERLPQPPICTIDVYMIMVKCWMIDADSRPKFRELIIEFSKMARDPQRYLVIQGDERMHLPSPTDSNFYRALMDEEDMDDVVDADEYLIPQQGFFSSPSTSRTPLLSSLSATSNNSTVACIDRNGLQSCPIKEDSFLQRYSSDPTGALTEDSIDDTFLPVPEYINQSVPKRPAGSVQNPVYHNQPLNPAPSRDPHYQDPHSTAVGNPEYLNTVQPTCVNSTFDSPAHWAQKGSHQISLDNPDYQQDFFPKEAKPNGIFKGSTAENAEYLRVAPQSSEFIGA
[5] abbreviates: read-out: EGFR (L858R/T790M/C797S) IC50.

T2 sequence (P00533 25-1210): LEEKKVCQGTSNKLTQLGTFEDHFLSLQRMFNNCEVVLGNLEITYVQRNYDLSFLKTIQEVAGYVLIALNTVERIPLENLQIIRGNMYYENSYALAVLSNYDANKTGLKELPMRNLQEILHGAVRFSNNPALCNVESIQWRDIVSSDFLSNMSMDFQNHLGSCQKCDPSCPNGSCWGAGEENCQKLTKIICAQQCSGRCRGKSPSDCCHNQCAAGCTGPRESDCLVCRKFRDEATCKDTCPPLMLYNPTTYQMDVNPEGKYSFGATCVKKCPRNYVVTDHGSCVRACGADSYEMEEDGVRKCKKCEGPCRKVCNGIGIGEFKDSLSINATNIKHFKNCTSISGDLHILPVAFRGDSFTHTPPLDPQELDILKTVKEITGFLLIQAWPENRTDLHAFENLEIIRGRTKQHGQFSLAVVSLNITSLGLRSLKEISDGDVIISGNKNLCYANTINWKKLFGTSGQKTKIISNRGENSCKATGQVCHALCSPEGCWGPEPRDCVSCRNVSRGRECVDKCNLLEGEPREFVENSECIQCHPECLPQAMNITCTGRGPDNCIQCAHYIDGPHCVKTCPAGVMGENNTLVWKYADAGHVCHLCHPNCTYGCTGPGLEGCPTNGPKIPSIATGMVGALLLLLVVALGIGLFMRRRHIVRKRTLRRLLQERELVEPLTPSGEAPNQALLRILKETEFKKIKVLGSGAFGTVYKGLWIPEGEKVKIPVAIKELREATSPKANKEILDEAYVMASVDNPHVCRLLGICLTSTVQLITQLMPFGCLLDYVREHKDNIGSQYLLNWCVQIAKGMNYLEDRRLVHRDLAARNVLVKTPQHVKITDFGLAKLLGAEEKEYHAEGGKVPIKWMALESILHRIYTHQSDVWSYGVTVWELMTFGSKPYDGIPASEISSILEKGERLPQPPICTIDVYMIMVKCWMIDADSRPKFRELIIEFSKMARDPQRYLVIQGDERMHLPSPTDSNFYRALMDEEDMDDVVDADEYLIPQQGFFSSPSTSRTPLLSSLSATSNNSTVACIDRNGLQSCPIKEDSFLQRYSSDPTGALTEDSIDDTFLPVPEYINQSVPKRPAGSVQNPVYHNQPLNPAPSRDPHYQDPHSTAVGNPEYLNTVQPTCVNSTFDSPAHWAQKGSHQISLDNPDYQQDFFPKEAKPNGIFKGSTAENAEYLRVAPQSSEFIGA
T1 sequence (P00533 25-1210 T790M/C797S/L858R): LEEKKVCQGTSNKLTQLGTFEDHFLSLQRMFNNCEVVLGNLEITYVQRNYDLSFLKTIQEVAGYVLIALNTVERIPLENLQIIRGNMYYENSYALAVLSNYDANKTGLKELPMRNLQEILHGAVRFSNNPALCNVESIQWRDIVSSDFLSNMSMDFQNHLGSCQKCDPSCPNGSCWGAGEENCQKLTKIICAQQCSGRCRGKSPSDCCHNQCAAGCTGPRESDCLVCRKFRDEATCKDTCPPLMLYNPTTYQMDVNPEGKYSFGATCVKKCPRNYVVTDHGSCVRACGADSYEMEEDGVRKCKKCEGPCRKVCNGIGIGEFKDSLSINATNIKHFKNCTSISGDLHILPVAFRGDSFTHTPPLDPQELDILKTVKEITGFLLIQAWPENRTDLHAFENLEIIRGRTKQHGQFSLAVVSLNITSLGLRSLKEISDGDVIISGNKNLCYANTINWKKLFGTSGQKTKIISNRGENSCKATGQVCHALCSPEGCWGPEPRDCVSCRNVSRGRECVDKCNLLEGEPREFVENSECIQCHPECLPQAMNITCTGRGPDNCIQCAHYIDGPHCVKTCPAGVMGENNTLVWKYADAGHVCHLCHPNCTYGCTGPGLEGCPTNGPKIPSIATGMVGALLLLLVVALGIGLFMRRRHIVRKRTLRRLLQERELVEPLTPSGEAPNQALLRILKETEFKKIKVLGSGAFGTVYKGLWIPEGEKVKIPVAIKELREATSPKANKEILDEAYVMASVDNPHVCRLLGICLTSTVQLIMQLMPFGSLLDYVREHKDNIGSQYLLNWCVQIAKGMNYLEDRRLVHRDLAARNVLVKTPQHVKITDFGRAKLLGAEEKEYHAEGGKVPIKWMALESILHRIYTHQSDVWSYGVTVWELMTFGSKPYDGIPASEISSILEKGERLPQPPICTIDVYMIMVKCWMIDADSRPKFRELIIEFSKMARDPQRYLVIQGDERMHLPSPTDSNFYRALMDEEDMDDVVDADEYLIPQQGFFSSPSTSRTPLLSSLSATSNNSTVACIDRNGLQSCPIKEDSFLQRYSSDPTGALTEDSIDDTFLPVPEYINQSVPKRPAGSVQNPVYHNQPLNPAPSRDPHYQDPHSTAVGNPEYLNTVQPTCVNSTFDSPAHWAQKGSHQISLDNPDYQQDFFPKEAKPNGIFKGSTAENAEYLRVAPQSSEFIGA

For `CCN1CCC2(CC1)CCN(c1cc(OC)c(Nc3ncc(Br)c(Nc4ccc5nccnc5c4P(C)(C)=O)n3)cc1-c1cnn(C)c1)CC2` [compound 226], the IC50 was determined as 0.19 nM in assay [1] (setting [5]); 1.4 nM on wild-type EGFR (read-out: EGFR (WT) IC50); 47.4 nM in assay [3] (Homo sapiens, A-431, 72 h). For the same compound, the GI50 stood at 1.55 nM in assay [2] and 4.34 nM in assay [4].
The like results for `COc1cc(N2CCC3CCN(CC4CC4)C3C2)c(-c2cnn(C)c2)cc1Nc1ncc(Br)c(Nc2ccc3nccnc3c2P(C)(C)=O)n1` (stereo not drawn) [compound 227] were, in that order, 0.59 nM, 2.69 nM, 34.7 nM, 2.78 nM and 6.64 nM.
The corresponding values for `COc1cc(N2CCC3(CC2)CCN(C(C)C)CC3)c(-c2cnn(C)c2)cc1Nc1ncc(Br)c(Nc2ccc3nccnc3c2P(C)(C)=O)n1` [compound 228] are 0.48 nM, 1.04 nM, 44.8 nM, 4.58 nM and 8.5 nM.
The corresponding values for `COc1cc(N2CCN(C3(C)CC3)CC2)c(-c2cnn(C)c2)cc1Nc1ncc(Br)c(Nc2ccc3nccnc3c2P(C)(C)=O)n1` [compound 229] are 0.42 nM, 8.53 nM, 164 nM, 3.76 nM and 12.1 nM.
For `COc1cc(N2CCC3(CCN(CCF)CC3)CC2)c(-c2cnn(C)c2)cc1Nc1ncc(Br)c(Nc2ccccc2P(C)(C)=O)n1` [compound 230], the IC50 was determined as 0.29 nM in assay [1] (setting [5]); 12 nM on wild-type EGFR (read-out: EGFR (WT) IC50); 126 nM in assay [3] (Homo sapiens, A-431, 72 h). Besides, the values for the GI50 in assay [2] and in assay [4] were 4.47 nM and 10.1 nM, respectively.
The like results for `COc1cc(N2CCC3(CCN(CCF)CC3)CC2)c(-c2cnn(C)c2F)cc1Nc1ncc(Br)c(Nc2ccc3nccnc3c2P(C)(C)=O)n1` [compound 231] were, in that order, 0.37 nM, 1.12 nM, 40.1 nM, 1.08 nM and 1.12 nM.
Turning to `COCCN1CCN(C2CCN(c3cc(OC)c(Nc4ncc(Br)c(Nc5ccc6nccnc6c5P(C)(C)=S)n4)cc3-c3cnn(C)c3)CC2)CC1` [compound 232], the IC50 in assay [1] (EGFR (L858R/T790M/C797S) IC50(nM)) turned out to be 0.58 nM; against wild-type EGFR (EGFR (WT) IC50(nM)), 4.11 nM; in assay [3] (Homo sapiens, A-431, 72 hours), 126 nM. The values for the GI50 in assay [2] and in assay [4] were 3.16 nM and 8.59 nM, respectively.
As to `COc1cc(N2CCC3(CCN(CCF)CC3)CC2)c(-c2cnn(C)c2)cc1Nc1ncc(Cl)c(Nc2ccc3nccnc3c2P(C)(C)=O)n1` [compound 233], the IC50 in assay [1] (setting [5]) was 0.26 nM; at wild-type EGFR (read-out: EGFR (WT) IC50), 2.49 nM; in assay [3] (Homo sapiens, A-431, 72 h) it was 79.5 nM. Besides, the GI50 in assay [2] amounted to 1.74 nM; in assay [4] it was 3.54 nM.
Consider `COc1cc(N2CCN(CC3CC3)CC2)c(-c2cnn(C)c2)cc1Nc1ncc(Br)c(Nc2ccc3nccnc3c2P(C)(C)=O)n1` [compound 235], for which the IC50 was found to be 0.27 nM in assay [1] (setting [5]), 10.5 nM at wild-type EGFR (read-out: EGFR (WT) IC50) and 89 nM in assay [3] (72 hours). Besides, the GI50 was determined as 8.53 nM in assay [2] and 24.8 nM in assay [4].
As for `COc1cc(N2CCN(CC3CC3)CC2)c(-c2cnn(C)c2)cc1Nc1ncc(Br)c(Nc2ccc3cncnc3c2P(C)(C)=O)n1` [compound 236], the IC50 worked out at 0.21 nM in assay [1] (setting [5]); 11 nM at wild-type EGFR (read-out: EGFR (WT) IC50); 91.5 nM in assay [3] (Homo sapiens, A-431, 72 h). Moreover, the GI50 in assay [2] was 5.45 nM; in assay [4], 12.7 nM.
The corresponding values for `COc1cc(N2CCN(CC3(C#N)CC3)CC2)c(-c2cnn(C)c2)cc1Nc1ncc(Br)c(Nc2ccc3nccnc3c2P(C)(C)=O)n1` [compound 237, 1-((4-(4-((5-Bromo-4-((5-(dimethylphosphoryl)quinoxalin-6-yl)amino)pyrimidin-2-yl)amino)-5-methoxy-2-(1-methyl-1H-pyrazol-4-yl)phenyl)piperazin-1-yl)methyl)cyclopropane-1-carbonitrile] are 0.52 nM, 5.2 nM, 129 nM, 1.26 nM and 3.05 nM.
As to `COc1cc(N2CCC3(CCN(CCF)CC3)CC2)c(-c2cnn(C)c2)cc1Nc1ncc(Br)c(Nc2ccc3ncccc3c2P(C)(C)=O)n1` [compound 238], the IC50 in assay [1] (setting [5]) amounted to 0.3 nM; on wild-type EGFR (read-out: EGFR (WT) IC50), 3.02 nM; in assay [3] (Homo sapiens, A-431, 72 h), 61.9 nM. For the same compound, the GI50 was found to be 1.83 nM in assay [2] and 3.59 nM in assay [4].
The like results for `COc1cc(N2CCC(C)(OC)CC2)c(-c2cnn(C)c2)cc1Nc1ncc(Cl)c(Nc2ccc3nccnc3c2P(C)(C)=O)n1` [compound 239] were, in that order, 1.6 nM, 7.57 nM, 141 nM, 2.1 nM and 4.61 nM.
The corresponding values for `COc1cc(N2CCC(C)(OC)CC2)c(-c2cnn(C)c2)cc1Nc1ncc(Br)c(Nc2ccccc2P(C)(C)=O)n1` [compound 240] are 0.51 nM, 29.9 nM, 304 nM, 8.2 nM and 19.2 nM.
The corresponding values for `COc1cc(N2CCC(C)(OC)CC2)c(-c2c[nH]n(C)c2=O)cc1Nc1ncc(Br)c(Nc2ccc3nccnc3c2P(C)(C)=O)n1` [compound 241] are 0.13 nM, 30.1 nM, 182 nM, 2.92 nM and 12.3 nM.
Consider `COc1cc(N2CCC3(CCN(CC4(C#N)CC4)CC3)CC2)c(-c2cnn(C)c2)cc1Nc1ncc(Br)c(Nc2ccc3nccnc3c2P(C)(C)=O)n1` [compound 244, 1-((9-(4-((5-Bromo-4-((5-(dimethylphosphoryl)quinoxalin-6-yl)amino)pyrimidin-2-yl)amino)-5-methoxy-2-(1-methyl-1H-pyrazol-4-yl)phenyl)-3,9-diazaspiro[5.5]undecan-3-yl)methyl)cyclopropane-1-carbonitrile], for which the IC50 turned out to be 0.78 nM in assay [1] (setting [5]); 2.74 nM at wild-type EGFR (read-out: EGFR (WT) IC50); 125 nM in assay [3] (Homo sapiens, A-431, 72 h). For the same compound, the values for the GI50 in assay [2] and in assay [4] were 1.19 nM and 2.43 nM, respectively.
The corresponding values for `COc1cc(N2CCC3(CCN(CC(F)(F)F)CC3)CC2)c(-c2cnn(C)c2)cc1Nc1ncc(Br)c(Nc2ccc3nccnc3c2P(C)(C)=O)n1` [compound 245] are 2.8 nM, 105 nM, 747 nM, 5.35 nM and 11.6 nM.
The like results for `COc1cc(N2CCC3(CC2)CCN(C(C)CF)CC3)c(-c2cnn(C)c2)cc1Nc1ncc(Br)c(Nc2ccc3nccnc3c2P(C)(C)=O)n1` (stereo not drawn) [compound 246] were, in that order, 0.4 nM, 1.05 nM, 128 nM, 2.59 nM and 3.64 nM.
The corresponding values for `COc1cc(N2CC3CN(CCF)CC3C2)c(-c2cnn(C)c2)cc1Nc1ncc(Br)c(Nc2ccc3nccnc3c2P(C)(C)=O)n1` (stereo not drawn) [compound 247, (6-((5-Bromo-2-((4-(5-(2-fluoroethyl)hexahydropyrrolo[3,4-c]pyrrol-2(1H)-yl)-2-methoxy-5-(1-methyl-1H-pyrazol-4-yl)phenyl)amino)pyrimidin-4-yl)amino)quinoxalin-5-yl)dimethylphosphine oxide] are 0.12 nM, 5.81 nM, 66.4 nM, 3.76 nM and 7.76 nM.
`COc1cc(N2CCC3(CC2)CCN(C2COC2)CC3)c(-c2cnn(C)c2)cc1Nc1ncc(Br)c(Nc2ccc3nccnc3c2P(C)(C)=O)n1` [compound 248]: the IC50 was 0.29 nM in assay [1] (setting [5]); 1.91 nM on wild-type EGFR (read-out: EGFR (WT) IC50); 84.7 nM in assay [3] (Homo sapiens, A-431, 72 h). Further, the results for the GI50 in assay [2] and in assay [4] were 1.17 nM and 2.37 nM, respectively.
The corresponding values for `COc1nc(N2CCC3(CCN(CCF)CC3)CC2)c(-c2cnn(C)c2)cc1Nc1ncc(Br)c(Nc2ccc3nccnc3c2P(C)(C)=O)n1` [compound 249] are 0.4 nM, 3.31 nM, 85 nM, 2.55 nM and 8.95 nM.
